Assay results: patent US6326014A, “Use of oxamate derivatives as depigmenting agents” (L, Oreal, priority 1997, dated 2001)

System: co-culture of keratinocytes and melanocytes
Test: Depigmenting activity: inhibition of melanogenesis in co-culture of keratinocytes and melanocytes
Assay type: cell-based
Details: for IC50: keratinocyte/melanocyte co-culture, read-out: IC50 (50% inhibition of melanogenesis)
Description: This test corresponds to the one described in patent FR 2,734,825 filed by the Applicant, as well as in the article by R. Schmidt, P. […], Anal. Biochem., 235(2), 113-18, (1996), the entire contents of each of which are hereby incorporated by reference. […] For each test compound, the IC50 value, which corresponds to the micromolar concentration (μM) for which a 50% inhibition of melanogenesis is observed, is determined. Moreover, a class is given to each of these compounds as regards their maximum depigmenting activity: […]

IC50	SMILES	Class (maximum depigmenting activity) (at 50 μM)	Class (maximum depigmenting activity) (at 10 μM)	Class (maximum depigmenting activity) (at 500 μM)
10 µM	CCOC(=O)C(=O)Nc1ccc(O)cc1 [Example 1, Ethyl N-(4-hydroxyphenyl)oxamate]	3 (60 to 100% inhibition of melanogenesis relative to the control (same experiment without test compound))	–	–
10 µM	O=C(NC[C@H](O)[C@@H](O)[C@H](O)[C@H](O)CO)C(=O)Nc1ccc(O)cc1 [Example 2, N-(4-hydroxyphenyl)-N'-(D-glucamino)oxamide]	–	2 (30 to 60% inhibition of melanogenesis relative to the control (same experiment without test compound))	–
500 µM	O=c1cc(CO)occ1O [Kojic acid, reference compound]	–	–	2 (30 to 60% inhibition of melanogenesis relative to the control (same experiment without test compound))
